The record followed here is PubChem BioAssay (NCI).

Each structure is given as a SMILES string.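 96-well plates; 48 h exposure; 5 concentrations. Endpoints by linear interpolation between flanking doses. Not reached: highest tested concentration assigned. At the TGI there is no net growth.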 Some results are limits rather than exact numbers.

Test systems include SK-MEL-2 melanoma; RXF 393 renal; HT29 colon; BT-549 breast; NCI-H23 lung; U251 CNS; SK-MEL-5 melanoma; MALME-3M melanoma; EKVX NSCLC; UACC-257 melanoma; HCT-15 colon; HOP-92 NSCLC.
Test in all cases: NCI anticancer screen, dose series, 48 h

`CN1CC=C(c2cccn2C)CC1`: the TGI in the assay on SK-MEL-2 melanoma, in the assay with RXF 393 renal, with HT29 colon, in the assay with BT-549 breast, in the assay on NCI-H23 lung and in the assay with U251 CNS was above 100 µM in each case. For the same compound, the TGI with SK-MEL-5 melanoma, in the assay on MALME-3M melanoma, with EKVX NSCLC, in the assay with UACC-257 melanoma and in the assay on HCT-15 colon was above 100 µM in each case.
Consider `O=c1nc2c(c(-c3ccc(F)cc3)[nH]1)COC/C2=C\c1ccc(F)cc1`, for which the TGI in the assay on SK-MEL-2 melanoma, in the assay on RXF 393 renal, in the assay with HOP-92 NSCLC, with BT-549 breast, with NCI-H23 lung and in the assay on U251 CNS was above 100 µM throughout. Further, the TGI in the assay on SK-MEL-5 melanoma, in the assay with EKVX NSCLC, in the assay with UACC-257 melanoma and in the assay with HCT-15 colon was above 100 µM in each case.
Consider `Cc1cc(C)c(NC(=O)/C=C/c2ccccc2)c(C)c1`, for which the TGI in the assay on SK-MEL-2 melanoma, in the assay on RXF 393 renal, with HT29 colon, in the assay with HOP-92 NSCLC, in the assay on BT-549 breast and in the assay with NCI-H23 lung was above 100 µM throughout. Also, the TGI in the assay on U251 CNS, in the assay on EKVX NSCLC, in the assay on UACC-257 melanoma and in the assay on HCT-15 colon was above 100 µM each time.
Turning to `CCc1ccc(Nc2cc(=O)n(C)c(SCc3ccccc3)n2)cc1`, the TGI was above 100 µM with SK-MEL-2 melanoma; above 100 µM in the assay with RXF 393 renal; 60.4 µM in the assay with HT29 colon; above 100 µM in the assay on HOP-92 NSCLC; above 100 µM in the assay with BT-549 breast; above 100 µM in the assay on NCI-H23 lung. Besides, the TGI in the assay on SK-MEL-5 melanoma, with MALME-3M melanoma, in the assay on EKVX NSCLC, with UACC-257 melanoma and in the assay with HCT-15 colon was above 100 µM in each case.
With `COC(=O)CC(CNC(=O)OCc1ccccc1)OCc1ccc(OC)cc1` (stereo not given), the TGI with SK-MEL-2 melanoma, in the assay with RXF 393 renal, with HOP-92 NSCLC, in the assay on BT-549 breast, in the assay with NCI-H23 lung and in the assay with U251 CNS was above 100 µM throughout. Further, the TGI with SK-MEL-5 melanoma, in the assay with MALME-3M melanoma, in the assay with EKVX NSCLC, in the assay on UACC-257 melanoma and in the assay on HCT-15 colon was above 100 µM each time.
As for `CCCCCCCc1cscc1-c1cscc1Br`, the TGI is 34.1 µM with SK-MEL-2 melanoma; 67 µM with RXF 393 renal; above 100 µM in the assay with BT-549 breast; above 100 µM with NCI-H23 lung; above 100 µM with U251 CNS; above 100 µM with SK-MEL-5 melanoma. Further, the TGI in the assay on MALME-3M melanoma, in the assay on EKVX NSCLC, in the assay on UACC-257 melanoma and in the assay on HCT-15 colon was above 100 µM each time.
Take `S=C(Nc1ccc2c(c1)oc1ccccc12)c1cccs1`: the TGI in the assay with SK-MEL-2 melanoma, in the assay on RXF 393 renal, with HT29 colon, in the assay with HOP-92 NSCLC, in the assay on BT-549 breast and with NCI-H23 lung was above 100 µM each time. The TGI in the assay on U251 CNS, in the assay on SK-MEL-5 melanoma, in the assay with EKVX NSCLC, with UACC-257 melanoma and with HCT-15 colon was above 100 µM throughout.
As for `C/C1=C/C[C@@H](/C(C)=C/c2csc(C)n2)OC(=O)C[C@H](O)C(C)(C)C(=O)[C@H](C)[C@@H](O)[C@@H](C)CCC1`, the TGI in the assay on SK-MEL-2 melanoma is 0.188 µM; in the assay on RXF 393 renal it was below 0.0001 µM; in the assay with HT29 colon, 0.335 µM; with HOP-92 NSCLC, 0.302 µM; in the assay on BT-549 breast, 0.198 µM; in the assay on NCI-H23 lung, 0.169 µM. The TGI in the assay on U251 CNS amounted to 0.169 µM; in the assay with SK-MEL-5 melanoma, 0.167 µM; with EKVX NSCLC, 0.215 µM; with HCT-15 colon it was 0.237 µM.
Take `c1ccc(-c2cc(-c3ccncc3)cc(-c3ccncc3)n2)cc1`: the TGI with SK-MEL-2 melanoma, in the assay on RXF 393 renal, in the assay on HT29 colon, with BT-549 breast, with NCI-H23 lung and in the assay with U251 CNS was above 100 µM each time. Also, the TGI in the assay on SK-MEL-5 melanoma, in the assay on MALME-3M melanoma, in the assay on EKVX NSCLC, in the assay with UACC-257 melanoma and with HCT-15 colon was above 100 µM throughout.
Regarding `COC(=O)[C@@H](OC(C)=O)[C@@H](OC(C)=O)c1nnc2ccc(Cl)nn12`, the TGI in the assay on SK-MEL-2 melanoma, in the assay on RXF 393 renal, in the assay on HT29 colon, in the assay with BT-549 breast, in the assay on NCI-H23 lung and in the assay with U251 CNS was above 100 µM throughout. Also, the TGI in the assay on SK-MEL-5 melanoma, in the assay with MALME-3M melanoma, in the assay with EKVX NSCLC, in the assay on UACC-257 melanoma and in the assay on HCT-15 colon was above 100 µM in each case.
In the case of `CCN(CC)C(=S)N/N=C/c1cc(OC)ccc1O`, the TGI with SK-MEL-2 melanoma, with RXF 393 renal, in the assay with HT29 colon, in the assay on BT-549 breast, in the assay on NCI-H23 lung and in the assay with U251 CNS was above 100 µM throughout. Further, the TGI with SK-MEL-5 melanoma was 70.5 µM; in the assay on MALME-3M melanoma, above 100 µM; with EKVX NSCLC, above 100 µM; in the assay with UACC-257 melanoma it was above 100 µM; in the assay with HCT-15 colon it was above 100 µM.
As for `CCOC(=O)C1=CNC(C(=O)OCC)C1c1cccn1-c1ccccc1` (stereo not given), the TGI in the assay on SK-MEL-2 melanoma is 37.2 µM; in the assay with RXF 393 renal, 69 µM; in the assay with HT29 colon it was 50.5 µM; with HOP-92 NSCLC it was 56.8 µM; in the assay on BT-549 breast it was above 100 µM; in the assay with NCI-H23 lung it was above 100 µM. In addition, the TGI was above 100 µM in the assay with U251 CNS; 31.5 µM in the assay on SK-MEL-5 melanoma; above 100 µM in the assay with EKVX NSCLC; above 100 µM with UACC-257 melanoma; above 100 µM in the assay with HCT-15 colon.
For `C(=N\NC1=NCCN1)/c1cccc2cc3ccncc3nc12`, the TGI in the assay with RXF 393 renal was found to be 13.2 µM; in the assay on HT29 colon, 10.5 µM; in the assay on HOP-92 NSCLC, 6.4 µM; with BT-549 breast, 29.4 µM; with NCI-H23 lung, 25.5 µM; in the assay on U251 CNS it was 4 µM. In addition, the TGI in the assay with SK-MEL-5 melanoma stood at 22.9 µM; in the assay on MALME-3M melanoma it was 23.4 µM; with EKVX NSCLC, 14.9 µM; in the assay with UACC-257 melanoma, 24.6 µM; in the assay with HCT-15 colon it was 13.1 µM.
For `C=CC(OC(=O)C(C)C)c1ccc(OC(=O)C(C)C)cc1` (stereo not given), the TGI with SK-MEL-2 melanoma was determined as 24 µM; in the assay with HT29 colon it was 26.3 µM; in the assay with HOP-92 NSCLC, 31.4 µM; in the assay with BT-549 breast, 31.2 µM; with NCI-H23 lung it was 51.4 µM; with U251 CNS, 15.3 µM. Further, the TGI in the assay on SK-MEL-5 melanoma came out at 30.6 µM; with MALME-3M melanoma it was 22 µM; in the assay on EKVX NSCLC, 39.3 µM; in the assay with UACC-257 melanoma, 27.9 µM; in the assay on HCT-15 colon, 20.2 µM.
On to `O=C1CC(C(OCc2ccccc2)C(OCc2ccccc2)C(OCc2ccccc2)C(COCc2ccccc2)OCc2ccccc2)CC(=O)N1` (stereo not given), for which the TGI with RXF 393 renal, in the assay on HT29 colon, with HOP-92 NSCLC, with BT-549 breast, with NCI-H23 lung and in the assay on U251 CNS was above 100 µM each time. Besides, the TGI in the assay with SK-MEL-5 melanoma, in the assay with MALME-3M melanoma, in the assay with EKVX NSCLC, in the assay with UACC-257 melanoma and with HCT-15 colon was above 100 µM in each case.
Turning to `CC(C)CC(NC=O)C(=O)NC(Cc1ccccc1)NC(=O)CNC(=O)C(C)NC(=O)C(N)Cc1ccc(O)cc1` (stereo not given), the TGI in the assay on RXF 393 renal, in the assay with HT29 colon, with HOP-92 NSCLC, in the assay on BT-549 breast, in the assay on NCI-H23 lung and in the assay with U251 CNS was above 100 µM each time. The TGI with SK-MEL-5 melanoma, in the assay on EKVX NSCLC and in the assay with HCT-15 colon was above 100 µM throughout.
In the case of `Cc1cnc2c(c1)C(=O)N(c1ccc([N+](=O)[O-])cc1)S2(=O)=O`, the TGI in the assay with SK-MEL-2 melanoma, with HT29 colon, with HOP-92 NSCLC, with BT-549 breast, with NCI-H23 lung and in the assay on U251 CNS was above 100 µM each time. For the same compound, the TGI with SK-MEL-5 melanoma was above 100 µM; with MALME-3M melanoma, 63.4 µM; in the assay with EKVX NSCLC, above 100 µM; in the assay on UACC-257 melanoma it was above 100 µM; in the assay with HCT-15 colon, above 100 µM.
Consider `O=C1CCCC2=C1CC1=C(CCCC1=O)N2c1ccc([N+](=O)[O-])cc1`, for which the TGI with RXF 393 renal, in the assay with HT29 colon, in the assay on BT-549 breast, in the assay with NCI-H23 lung, with U251 CNS and in the assay with SK-MEL-5 melanoma was above 100 µM in each case. Moreover, the TGI in the assay with EKVX NSCLC and in the assay with HCT-15 colon was above 100 µM in each case.
`COc1cc2cc3c4cc(OC)c(OC)cc4cc[n+]3c(C)c2cc1OC`: the TGI in the assay on SK-MEL-2 melanoma, in the assay on HT29 colon, with HOP-92 NSCLC, with BT-549 breast, in the assay with NCI-H23 lung and in the assay with U251 CNS was above 100 µM throughout. The TGI with SK-MEL-5 melanoma, with MALME-3M melanoma, in the assay with EKVX NSCLC, in the assay with UACC-257 melanoma and in the assay on HCT-15 colon was above 100 µM throughout.
